Data as given in patent US20030166622A1, “Vitamin D derivatives with acyloxy groups in the side chains, process for their production, and the use for the production of pharmaceutical agents” (Schering AG, priority 2001, published 2003).
“Also recorded” adds a separate entry of the source.

Key:
[1] = DNFB-induced allergic contact allergy in the mouse (DNFB-DTH); format: in vivo; settings: for DR (Hypercalcemic threshold dose/ immunosuppressive threshold dose): therapeutic range, mouse, once daily intragastrically around sensitization, calcium level in urine as side-effect parameter; for activity in vivo (prevention of the formation of edemas): contact allergy in the mouse
From the text: 58, 179-204 (1999)]. The model of the dinitrofluorobenzene (DNFB)-induced allergic contact allergy in the mouse represents an inflammatory skin disease with the background of an inflammatory reaction of the delayed type (delayed type hypersensitivity; DTH). The inflammatory phase of the contact allergy is triggered by a multi-phase reaction. A repeated contact with the topically effective contact allergen DNFB (25 il of a 0.5% (w/v) DNFB solution in acetone/olive oil 4:1 [v/v] on the shaved abdomen with a surface area of about 10 cm^2 on test days 0. and 1.) triggers an immune reaction, which results in the sensitization of the animals against the specific agent, without “visible” symptoms occurring. Only after a sensitization time of 4-5 days, in which populations of DNFB-specific lymphocytes of “memory” type have formed in the draining lymph nodes, can a renewed contact (20 il of a 0.5% (w/v) DNFB solution in acetone/olive oil 4:1 [v/v]) trigger an inflammatory skin reaction with the contact allergen at any skin area (here: on both ears, treated surface area/ear about 2 cm^2). This second phase, which is also referred to as the trigger or “challenge,” ends in an eczematous lesion on the second contact site. The evaluation of the extent of the inflammatory reaction or the success of treatment is performed routinely 24 hours after the triggering, since at this time, the parameters that are to be analyzed (ear thickness and cell infiltration as a yardstick for the edema) have reached a plateau. The model of the DNFB-induced contact allergy allows the examination of the action of systemically or topically administered test substances with immunosuppressive/immunomodulating or inflammation-inhibiting properties. In the study on immunomodulating properties of calcitriol derivatives, the latter are administered once daily intragastrically in physiological common salt solution (0.9% NaCl) with an admixture of 0.085% Myrj 53) around the time of sensitization (beginning two days before and one day before sensitization, on the day of sensitization and on day 1 and 2 after sensitization). As side-effect parameters that are typical of vitamin D, the determination of the calcium level in the urine of the treated animals is used at the latest 24 hours after the last treatment with the substance. The calcium content is determined by flame-photometry. The significance of differences occurring between substance groups and controls as well as between test substance and reference substance are supported with suitable statistic processes. The therapeutic range of the test substances and calcitriol as a reference substance is indicated as a dose ratio DR (DR=factor of hypercalcemic threshold dose/immunosuppressive threshold dose).

[2] = acute hypercalcemic action in rats (serum calcium after one-time subcutaneous administration); format: in vivo, rat; settings: relative to calcitriol, male rats
Method: To determine the acute hypercalcemic action of various calcitriol derivatives, the test that is described below is carried out:
The action of control (solution base), reference substance (1,25-dihydroxy vitamin D3=calcitriol) and test substance is tested in each case after one-time subcutaneous administration in groups of 10 healthy male rats (140-170 g). During the testing time, the rats are kept in special cages to determine the excretion of water and mineral substances. Urine is collected in 2 fractions (0-16 hours and 16-22 hours). An oral dose of calcium (0.1 mmol of calcium in 6.5% alpha-hydroxypropyl cellulose, 5 ml/animal) replaces at 1600 hours the calcium intake that is lacking by food deprivation. At the end of the test, the animals are sacrificed by decapitation and exsanguinated to determine the serum-calcium values. For the primary screening test in vivo, an individual standard dose (200 ig/kg) is tested. For selected substances, the result is supported by establishing a dose-effect relation.
A hypercalcemic action is shown in serum-calcium level values that are higher than in the control.
The significance of differences occurring between substance groups and controls as well as between test substance and reference substance are supported with suitable statistical processes.

vitamin D receptor = molecular target: T1, vitamin D receptor (Sus scrofa, UniProt A3RGC1); assay: calcitriol-receptor test (competition with 3H-calcitriol, protein extract from intestines of juvenile pigs); settings: for KF (competition factor: concentration of test substance / reference substance at 50% competition): relative to unlabeled calcitriol, 3H-calcitriol 5x10^-10 mol/l, 2 hours at 4° C; for activity in vitro: result in words, summary of the in vitro tests of the table (calcitriol-receptor test and HL 60)
T1 sequence (A3RGC1 1-427): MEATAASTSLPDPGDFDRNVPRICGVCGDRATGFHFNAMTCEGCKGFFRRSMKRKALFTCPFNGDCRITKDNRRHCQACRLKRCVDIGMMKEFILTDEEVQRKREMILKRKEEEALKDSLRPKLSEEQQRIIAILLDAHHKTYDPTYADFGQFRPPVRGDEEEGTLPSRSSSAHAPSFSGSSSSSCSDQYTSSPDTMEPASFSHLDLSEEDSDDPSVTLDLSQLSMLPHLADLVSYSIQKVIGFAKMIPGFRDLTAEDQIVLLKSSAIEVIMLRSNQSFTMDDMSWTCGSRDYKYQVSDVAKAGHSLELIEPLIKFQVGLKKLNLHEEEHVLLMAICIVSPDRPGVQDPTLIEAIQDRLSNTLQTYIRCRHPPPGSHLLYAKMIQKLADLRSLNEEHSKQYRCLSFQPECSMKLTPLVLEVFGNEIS
Method: It is carried out using a protein extract from the intestines of juvenile pigs. […] To this end, 250 il of a charcoal-dextran suspension is fed to each test tube and incubated at 4° C. for 20 minutes. Then, the samples are centrifuged at 10,000 g for 5 minutes at 4° C. The supernatant is decanted and measured in a á-counter after 1 hour of equilibration in Picofluor 15™.
The competition curves that are obtained at various concentrations of test substance as well as of reference substance (unlabeled calcitriol) at constant concentration of the reference substance (^3H-calcitriol) are placed in relation to one another, and a competition factor (KF) is determined.
It is defined as a quotient of the concentrations of the respective test substance and the reference substance, which are necessary for 50% competition:
KF=Concentration of test substance at 50% competition
Concentration of reference substance at 50% competition

HL 60 cells = assay: differentiation induction of HL 60 cells to macrophages (NBT reduction); format: cell-based, human; settings: relative to calcitriol; 96 hours incubation
Method: The differentiation-stimulating action of calcitriol analogs is also detected quantitatively.
It is known in the literature [D. J. Mangelsdorf et al., J. Cell. Biol. 98, 391 (1984)] that the treatment of human leukemia cells (promyelocyte cell line HL 60) in vitro with calcitriol induces the differentiation of cells to macrophages.
HL 60 cells are cultivated in tissue culture medium (RPMI 10% fetal calf serum) at 37° C. in an atmosphere of 5% CO2 in air.
For substance testing, the cells are centrifuged off, and 2.0×10^5 cells/ml in phenol red-free tissue culture medium are taken up. The test substances are dissolved in ethanol and diluted to the desired concentration with tissue culture medium without phenol red. The dilution stages are mixed with the cell suspension at a ratio of 1:10, and 100 il each of this cell suspension that is mixed with substance is pipetted into an indentation of a 96-hole plate. For control, a cell suspension is mixed analogously with the solvent.
After incubation for 96 hours at 37° C. in 5% CO2 in air, 100 il of an NBT-TPA solution (nitro blue tetrazolium (NBT), final concentration in the batch of 1 mg/ml, tetradecanoyl phorbolmyristate-13-acetate (TPA), final concentration in the batch of 2×10^−7 mol/l) is pipetted into each indentation of the 96-hole plate in the cell suspension.
By incubation for 2 hours at 37° C. and 5% CO2 in air, NBT is reduced to insoluble formazan because of the intracellular oxygen radical release, stimulated by TPA, in the cells that are differentiated to macrophages.
To complete the reaction, the indentations of the 96-hole plate are suctioned off, and the cells are affixed to the bottom of the plate by adding methanol and dried after affixing. To dissolve the intracellular formazan crystals that are formed, 100 il of potassium hydroxide (2 mol/l) and 100 il of dimethyl sulfoxide are pipetted into each indentation and ultrasonically treated for 1 minute. The concentration of formazan is measured by spectrophotometry at 650 nm.
As a yardstick for the differentiation induction of HL 60 cells to macrophages, the concentration of formed formazan applies.

Row | DR (Ca) (dose ratio for hypercalcemia, test substance dose/reference substance dose for comparable actions) [2] | KF (competition factor: concentration of test substance / reference substance at 50% competition) (vitamin D receptor) | SMILES | DR (Hypercalcemic threshold dose/ immunosuppressive threshold dose) [1] | DR (HL 60) (dose ratio test substance/reference substance for comparable semi-maximum actions) (HL 60 cells) | activity in vivo (prevention of the formation of edemas) ([1]; result in words) | activity in vitro (vitamin D receptor) | therapeutic range (immunosuppressive threshold dose versus hypercalcemic threshold dose) ([1]; result in words, relative to compounds that have free hydroxy groups in the side chain)
1 | – | – | C=C1C(=CC=C2CCCC3(C)C2CCC3C(C)C=CC(O)C2(c3ncc(CCCC)o3)CC2)CC(O)CC1O [(5Z,7E,22E)-(1S,3R,24R)-25-(5-butyloxazole-2-yl)-26,27-cyclo-9,10-secocholesta-5,7,10(19),22-tetraene-1,3,24-triol, reference compound] | 1,000 | – | – | – | –
2 | 300 | 2 | C=C1/C(=C\C=C2/CCC[C@]3(C)[C@@H]([C@H](C)/C=C/[C@@H](O)C4(c5ncc(CCC)o5)CC4)CC[C@@H]23)C[C@@H](O)C[C@@H]1O [A, (5Z,7E,22E)-(1S,3R,24R)-25-(5-Propyloxazole-2-yl)-26,27-cyclo-9,10-secocholesta-5,7,10(19),22-tetraene-1,3,24-triol] | – | 1.9 | – | – | –
3 | >300 | 2 | C=C1/C(=C\C=C2/CCC[C@]3(C)[C@@H]([C@H](C)/C=C/[C@@H](O)C4(c5ncc(C)o5)CC4)CC[C@@H]23)C[C@@H](O)C[C@@H]1O [B, (5Z,7E,22E)-(1S,3R,24R)-25-(5-Methyloxazole-2-yl)-26,27-cyclo-9,10-secocholesta-5,7,10(19),22-tetraene-1,3,24-triol] | – | 3.4 | – | – | –
4 | >300 | 3 | C=C1C(=CC=C2CCCC3(C)C2CCC3C(C)C=CC(O)C2(c3ncc(CC)o3)CC2)CC(O)CC1O [C, (5Z,7E,22E)-(1S,3R,24R)-25-(5-Ethyloxazole-2-yl)-26,27-cyclo-9,10-secocholesta-5,7,10(19),22-tetraene-1,3,24-triol] | – | 1.3 | – | – | –
5 | 1 | – | C=C1/C(=C\C=C2/CCC[C@]3(C)[C@@H]([C@H](C)CCCC(C)(C)O)CC[C@@H]23)C[C@@H](O)C[C@@H]1O [Calcitriol, 1,25-dihydroxy vitamin D3] | 1 | 1 | – | – | –
6 | >1000 | >100 | C=C1/C(=C\C=C2/CCC[C@]3(C)[C@@H]([C@H](C)CC[C@@H](OC(=O)C(C)(C)C)C4(c5ncc(CCCC)o5)CC4)CC[C@@H]23)C[C@@H](O)C[C@@H]1O [Compound 5b] | 20,000 | >170 | therapeutically active in vivo | inactivity; also recorded: deficient activity | –
7 | – | – | C=C1/C(=C\C=C2/CCC[C@]3(C)[C@@H]([C@H](C)CC[C@@H](OC(=O)NC)C4(c5ncc(CCCC)o5)CC4)CC[C@@H]23)C[C@@H](O)C[C@@H]1O [Compound 11b, (5Z,7E)-(1S,3R,24R)-25-(5-Butyloxazole-2-yl)-24-[[(methylamino)-carbonyl]oxy]-26,27-cyclo-9,10-secocholesta-5,7,10(19)-triene-1,3-diol] | – | – | – | – | clearly improved
8 | >300 | 4 | C=C1/C(=C\C=C2/CCC[C@]3(C)[C@@H]([C@H](C)/C=C/[C@@H](O)C4(c5ncc(CCCCC)o5)CC4)CC[C@@H]23)C[C@@H](O)C[C@@H]1O [D, (5Z,7E,22E)-(1S,3R,24R)-25-(5-Pentyloxazole-2-yl)-26,27-cyclo-9,10-secocholesta-5,7,10(19),22-tetraene-1,3,24-triol] | – | >100 | – | – | –

Row | SMILES | DR (Ca) (dose ratio for hypercalcemia, test substance dose/reference substance dose for comparable actions) [2] | KF (competition factor: concentration of test substance / reference substance at 50% competition) (vitamin D receptor) | DR (Hypercalcemic threshold dose/ immunosuppressive threshold dose) [1] | DR (HL 60) (dose ratio test substance/reference substance for comparable semi-maximum actions) (HL 60 cells) | activity in vivo (prevention of the formation of edemas) ([1]; result in words) | activity in vitro (vitamin D receptor) | therapeutic range (immunosuppressive threshold dose versus hypercalcemic threshold dose) ([1]; result in words, relative to compounds that have free hydroxy groups in the side chain)
9 | C=C1/C(=C\C=C2/CCC[C@]3(C)[C@@H]([C@H](C)CC[C@H](OC(C)=O)C4(c5ncc(CCCC)o5)CC4)CC[C@@H]23)C[C@@H](O)C[C@@H]1O [Compound 3a, (5Z,7E)-(1S,3R,24S)-24-Acetoxy-25-(5-butyloxazole-2-yl)-26,27-cyclo-9,10-secocholesta-5,7,10(19)-triene-1,3-diol] | >1000 | >100 | – | >170 | therapeutically active in vivo | inactivity; also recorded: deficient activity | –
10 | C=C1/C(=C\C=C2/CCC[C@]3(C)[C@@H]([C@H](C)CC[C@@H](OC(C)=O)C4(c5ncc(CCCC)o5)CC4)CC[C@@H]23)C[C@@H](O)C[C@@H]1O [Compound 3b, (5Z,7E)-(1S,3R,24R)-24-(Acetoxy)-25-(5-butyloxazole-2-yl)-26,27-cyclo-9,10-secocholesta-5,7,10(19)-triene-1,3-diol] | >1000 | >100 | – | >170 | therapeutically active in vivo | inactivity; also recorded: deficient activity | –
